Active and inactive are the calls of the source. The rule behind the calls is not given here.
Tests used:
[1] = test system: Enterobacteria phage lambda; experiment: Induction of lambda phage production in streptomycin-dependent lysogenic Escherichia coli W1709 (lambda) assessed as ratio of plaques in treated culture to control at 0.8 ug/ml; type: functional
P388 [2] = experiment: In vivo antitumor activity against mouse P388 cells relative to control; type: functional, organism-based
Bacillus subtilis [3] = experiment: Antibacterial activity against Bacillus subtilis assessed as growth inhibition at 3.1 ug/ml in 100 mm disk at pH 8.0 by single-disk method; type: functional; conditions: read-out: IZ
Bacillus subtilis [4] = experiment: Antibacterial activity against Bacillus subtilis assessed as growth inhibition at 0.2 ug/ml in 100 mm disk at pH 8.0 by single-disk method; type: functional; conditions: read-out: IZ
[5] = test system: Enterobacteria phage lambda; experiment: Induction of lambda phage production in streptomycin-dependent lysogenic Escherichia coli W1709 (lambda) assessed as ratio of plaques in treated culture to control at 12.5 ug/ml; type: functional
Bacillus subtilis [6] = experiment: Antibacterial activity against Bacillus subtilis assessed as growth inhibition at 12.5 ug/ml in 100 mm disk at pH 8.0 by single-disk method; type: functional; conditions: read-out: IZ
[7] = test system: Enterobacteria phage lambda; experiment: Induction of lambda phage production in streptomycin-dependent lysogenic Escherichia coli W1709 (lambda) assessed as ratio of plaques in treated culture to control at 0.5 ug/ml; type: functional
Escherichia coli [8] = experiment: Toxicity in streptomycin-dependent lysogenic Escherichia coli W1709 (lambda) at 12.5 ug/ml; type: organism-based; conditions: in vivo
[9] = test system: Enterobacteria phage lambda; experiment: Induction of lambda phage production in streptomycin-dependent lysogenic Escherichia coli W1709 (lambda) assessed as ratio of plaques in treated culture to control at 0.2 ug/ml; type: functional
Bacillus subtilis [10] = experiment: Antibacterial activity against Bacillus subtilis assessed as growth inhibition at 0.8 ug/ml in 100 mm disk at pH 8.0 by single-disk method; type: functional; conditions: read-out: IZ
[11] = test system: Enterobacteria phage lambda; experiment: Induction of lambda phage production in streptomycin-dependent lysogenic Escherichia coli W1709 (lambda) assessed as ratio of plaques in treated culture to control at 3.1 ug/ml; type: functional
Bacillus subtilis [12] = experiment: Antibacterial activity against Bacillus subtilis assessed as growth inhibition at 50 ug/ml in 100 mm disk at pH 8.0 by single-disk method; type: functional; conditions: read-out: IZ
[13] = test system: Enterobacteria phage lambda; experiment: Induction of lambda phage production in streptomycin-dependent lysogenic Escherichia coli W1709 (lambda) assessed as ratio of plaques in treated culture to control at 0.0125 ug/ml; type: functional
Escherichia coli [14] = experiment: Toxicity in streptomycin-dependent lysogenic Escherichia coli W1709 (lambda) at 0.5 ug/ml; type: organism-based; conditions: in vivo
P388 [15] = experiment: In vivo antitumor activity against mouse P388 cells at 6.4 mg/kg relative to control; type: functional
Bacillus subtilis [16] = experiment: Antibacterial activity against Bacillus subtilis assessed as growth inhibition at 5.5 ug/ml in 100 mm disk at pH 8.0 by single-disk method; type: functional; conditions: read-out: IZ
Escherichia coli [17] = experiment: Toxicity in streptomycin-dependent lysogenic Escherichia coli W1709 (lambda) at 3.1 ug/ml; type: organism-based; conditions: in vivo
Bacillus subtilis [18] = experiment: Antibacterial activity against Bacillus subtilis assessed as growth inhibition at 16.6 ug/ml in 100 mm disk at pH 8.0 by single-disk method; type: functional; conditions: read-out: IZ
Escherichia coli [19] = experiment: Toxicity in streptomycin-dependent lysogenic Escherichia coli W1709 (lambda) at 0.8 ug/ml; type: organism-based; conditions: in vivo

With COC1=C(C)C(=O)c2c(c(COC(N)=O)c3n2CCC3N2CCCC2)C1=O (configuration not stated) the T/C [1] was 1.6, the Activity (P388 [2]) was “inactive” and the zone of inhibition at 3.1 µg/mL (Bacillus subtilis [3]) was 22 mm. It also gave a zone of inhibition at 0.2 µg/mL (Bacillus subtilis [4]) of 11.3 mm, a T/C [5] of 2.1 and a zone of inhibition at 12.5 µg/mL (Bacillus subtilis [6]) of 27.8 mm. The T/C [7] was 1.2, the Activity (Escherichia coli [8]) was “Toxic” and the T/C [9] was 1.3. For the same molecule, the zone of inhibition at 0.8 µg/mL (Bacillus subtilis [10]) was 15.3 mm, the T/C [11] was 3.6 and the zone of inhibition at 50 µg/mL (Bacillus subtilis [12]) was 33 mm.
For CO[C@@]12[C@H](COC(N)=O)C3=C(C(=O)C(C)=C(N)C3=O)N1C[C@@H]1N[C@@H]12 [MITOMYCIN], the zone of inhibition at 0.2 µg/mL (Bacillus subtilis [4]) was 22.8 mm, the T/C [7] was 17.5 and the zone of inhibition at 0.8 µg/mL (Bacillus subtilis [10]) was 32 mm. The T/C [13] was 8.6, the Activity (Escherichia coli [14]) was “Toxic” and the T/C (P388 [15]) was 283%.
With COC1=C(C)C(=O)c2c(c(COC(N)=O)c3n2CCC3[N+]2(C)CCCC2)C1=O (configuration not stated) the T/C [1] was 1.1, the Activity (P388 [2]) was “inactive” and the T/C [5] was 2.2. For the same molecule, the zone of inhibition at 12.5 µg/mL (Bacillus subtilis [6]) was 10 mm, the T/C [7] was 1.1 and the T/C [9] was 1.1. The T/C [11] was 1.2 and the zone of inhibition at 50 µg/mL (Bacillus subtilis [12]) was 14.2 mm.
With COC1=C(C)C(=O)c2c(c(COC(N)=O)c3n2CCC3OC(C)=O)C1=O (configuration not stated) the T/C [1] was greater than 49, the zone of inhibition at 5.5 µg/mL (Bacillus subtilis [16]) was 31.2 mm and the Activity (Escherichia coli [17]) was “Toxic”. For the same molecule, the T/C [5] was greater than 49, the Activity (Escherichia coli [8]) was “Toxic” and the T/C [9] was 27.9. The T/C [11] was greater than 74, the zone of inhibition at 50 µg/mL (Bacillus subtilis [12]) was 35 mm and the zone of inhibition at 16.6 µg/mL (Bacillus subtilis [18]) was 35 mm. For the same molecule, the Activity (Escherichia coli [19]) was “Toxic” and the T/C (P388 [15]) was 162%.

From ChEMBL document CHEMBL3244251, “Mitomycin antibiotics. Synthesis of 7-methoxy-1-(N-pyrrolidino)mitosene and its methiodide” (J Med Chem, 1978)
